In PubChem BioAssay (NCI) one finds GI50 and TGI data, which are given here for 8 molecules.

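The compound was tested at five concentrations on cells cultured in 96-well plates, with a 48-hour exposure period. Abbreviation: GI50, concentration required for 50% inhibition of growth. TGI marks complete inhibition of growth.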

Some test systems named below: SR leukemia; HOP-62 NSCLC; UO-31 renal; CAKI-1 renal; MOLT-4 leukemia; OVCAR-3 ovarian; IGROV1 ovarian; OVCAR-4 ovarian; PC-3 prostate; A549 NSCLC.
Common to all, as to test: NCI-60 cell line screen, 48 h

Regarding `FC(F)(F)c1cc(-c2ncn(/C=C\c3nnco3)n2)cc(C(F)(F)F)c1`, the GI50 with SR leukemia was 0.0246 µM; in the test with HOP-62 NSCLC, 0.282 µM; in the test with UO-31 renal, 0.151 µM; in the test on CAKI-1 renal it was 0.0497 µM; with MOLT-4 leukemia, 0.0284 µM; in the test on OVCAR-3 ovarian it was 0.06 µM. Besides, the GI50 with IGROV1 ovarian was 0.676 µM; with OVCAR-4 ovarian, 0.0442 µM; in the test with PC-3 prostate, 0.093 µM; in the test with A549 NSCLC, 0.0586 µM. Besides, the TGI in the test with SR leukemia is 12.6 µM; in the test on HOP-62 NSCLC, 28.3 µM; with UO-31 renal, above 100 µM; with CAKI-1 renal, above 38.9 µM; in the test on MOLT-4 leukemia it was 0.938 µM; in the test on OVCAR-3 ovarian it was 1.42 µM. Also, the TGI with IGROV1 ovarian was above 100 µM; with PC-3 prostate, above 36.9 µM; in the test with A549 NSCLC, above 42.3 µM.

In the case of `C=C(CN1CCN(c2ccccc2C(F)(F)F)CC1)c1ccc(C(=O)Nc2ccccc2N)cc1`, the GI50 in the test with SR leukemia was 2.36 µM; in the test on HOP-62 NSCLC it was 4.76 µM; with UO-31 renal, 1 µM; with CAKI-1 renal it was 7.97 µM; in the test on MOLT-4 leukemia, 0.125 µM; in the test with OVCAR-3 ovarian it was 5.92 µM. The GI50 in the test on IGROV1 ovarian was 6.03 µM; in the test with OVCAR-4 ovarian it was 6.53 µM; with PC-3 prostate it was 1.91 µM; with A549 NSCLC, 4.17 µM. Also, the TGI is 5.95 µM with SR leukemia; above 44.4 µM in the test with HOP-62 NSCLC; above 60.3 µM in the test on UO-31 renal; above 51.4 µM in the test with CAKI-1 renal; 2.55 µM in the test with MOLT-4 leukemia; 38.3 µM in the test with OVCAR-3 ovarian. The TGI was above 100 µM with IGROV1 ovarian, above 84.3 µM in the test with OVCAR-4 ovarian, 12 µM in the test with PC-3 prostate and 33.8 µM with A549 NSCLC.

Regarding `O=Cc1ccc(-c2ccc(-c3ccc(C=O)o3)[se]2)o1`, the GI50 in the test with SR leukemia was above 100 µM; in the test with HOP-62 NSCLC, 57.5 µM; in the test with UO-31 renal, above 100 µM; with CAKI-1 renal, above 100 µM; in the test on MOLT-4 leukemia, above 100 µM; with OVCAR-3 ovarian it was above 100 µM. Further, the GI50 in the test on IGROV1 ovarian is above 65.9 µM; in the test on OVCAR-4 ovarian it was above 100 µM; in the test on PC-3 prostate, above 100 µM; in the test on A549 NSCLC, above 100 µM. Also, the TGI with SR leukemia, with HOP-62 NSCLC, in the test with UO-31 renal, in the test with CAKI-1 renal, in the test on MOLT-4 leukemia and in the test with OVCAR-3 ovarian was above 100 µM each time. In addition, the TGI in the test on IGROV1 ovarian, with OVCAR-4 ovarian, in the test with PC-3 prostate and in the test on A549 NSCLC was above 100 µM throughout.

As for `CCOC(=O)[C@@H](C)C[C@H](Cc1ccccc1)NC(=O)c1csc([C@@H](C[C@H](C(C)C)N(C)C(=O)[C@@H](NC(=O)[C@H]2C[C@H](O)CCN2C)C(C)C)OC(C)=O)n1`, the GI50 in the test on SR leukemia was below 0.00167 µM; in the test with HOP-62 NSCLC, 0.0146 µM; in the test on UO-31 renal, 0.647 µM; in the test on CAKI-1 renal, 0.0682 µM; with MOLT-4 leukemia, 0.00714 µM; with OVCAR-3 ovarian, below 0.00167 µM. Also, the GI50 is 0.00209 µM in the test on IGROV1 ovarian, 0.0259 µM with OVCAR-4 ovarian, 0.00187 µM in the test on PC-3 prostate and 0.0356 µM in the test on A549 NSCLC. The TGI with SR leukemia, in the test with HOP-62 NSCLC, in the test with UO-31 renal, in the test with CAKI-1 renal, with MOLT-4 leukemia and in the test with IGROV1 ovarian was above 16.7 µM throughout. Moreover, the TGI with OVCAR-4 ovarian, in the test on PC-3 prostate and in the test on A549 NSCLC was above 16.7 µM throughout.

For `CCCCN(CC)CCCCCCCCCCN1CCCc2cc(OC)ccc21`, the GI50 with SR leukemia was 1.94 µM; in the test with HOP-62 NSCLC, 2.69 µM; with UO-31 renal, 2.08 µM; in the test with CAKI-1 renal it was 2.13 µM; in the test with MOLT-4 leukemia, 3.09 µM; in the test on OVCAR-3 ovarian it was 3.35 µM. The GI50 was 3.18 µM in the test with IGROV1 ovarian, 4.33 µM in the test on OVCAR-4 ovarian, 3.06 µM with PC-3 prostate and 5.21 µM with A549 NSCLC. For the same molecule, the TGI is 5.56 µM in the test with SR leukemia; 10.2 µM with HOP-62 NSCLC; 11.3 µM in the test with UO-31 renal; 7.47 µM in the test on CAKI-1 renal; 10.5 µM with MOLT-4 leukemia; 11.3 µM with OVCAR-3 ovarian. Besides, the TGI was found to be 12.9 µM with IGROV1 ovarian, 19.6 µM in the test with OVCAR-4 ovarian, 12.7 µM in the test with PC-3 prostate and 20.9 µM in the test on A549 NSCLC.

With `Cn1c(=O)c2[nH]c(CCCc3ccc([N+](=O)[O-])cc3)nc2n(C)c1=O`, the TGI with SR leukemia, with HOP-62 NSCLC, with UO-31 renal, in the test with CAKI-1 renal, with MOLT-4 leukemia and in the test with OVCAR-3 ovarian was above 100 µM each time. Besides, the TGI in the test with IGROV1 ovarian, in the test on OVCAR-4 ovarian, in the test with PC-3 prostate and in the test on A549 NSCLC was above 100 µM in each case.

Regarding `NC(=N\N=C/c1ccc(Cl)cc1Cl)/C(N)=N\N=C/c1ccc(Cl)cc1Cl`, the GI50 with SR leukemia was above 100 µM; in the test with HOP-62 NSCLC, 15.1 µM; with UO-31 renal it was 13.3 µM; in the test with CAKI-1 renal it was 16.3 µM; with MOLT-4 leukemia, above 100 µM; with OVCAR-3 ovarian, 12.3 µM. In addition, the GI50 with IGROV1 ovarian was 4 µM; with OVCAR-4 ovarian, 0.34 µM; in the test with PC-3 prostate it was above 100 µM; with A549 NSCLC, 5.99 µM. Besides, the TGI with SR leukemia is above 100 µM; with HOP-62 NSCLC, 38.7 µM; in the test on UO-31 renal, above 83.6 µM; in the test on CAKI-1 renal it was above 100 µM; with MOLT-4 leukemia, above 100 µM; in the test with OVCAR-3 ovarian it was above 73.8 µM. Further, the TGI is above 100 µM in the test on IGROV1 ovarian, 1.65 µM in the test on OVCAR-4 ovarian, above 100 µM in the test with PC-3 prostate and above 100 µM with A549 NSCLC.

On to `O=C(Nc1ccc(I)cc1)c1cccc([N+](=O)[O-])c1O`, for which the GI50 in the test on SR leukemia was 2.87 µM; in the test with HOP-62 NSCLC it was 6.93 µM; in the test on UO-31 renal, 2.02 µM; with CAKI-1 renal, 2.91 µM; with MOLT-4 leukemia it was 3.38 µM; in the test on OVCAR-3 ovarian it was 2.9 µM. The GI50 with IGROV1 ovarian was 6.15 µM; in the test with OVCAR-4 ovarian, 2.61 µM; with PC-3 prostate, 2.72 µM; with A549 NSCLC, 4.52 µM. In addition, the TGI with SR leukemia is 19.8 µM; with HOP-62 NSCLC, above 100 µM; in the test on UO-31 renal, 8.49 µM; in the test with CAKI-1 renal, above 100 µM; with MOLT-4 leukemia, 92.3 µM; with OVCAR-3 ovarian it was above 100 µM. For the same molecule, the TGI is above 100 µM in the test on IGROV1 ovarian, 25 µM in the test with OVCAR-4 ovarian, 14.6 µM in the test with PC-3 prostate and above 100 µM in the test on A549 NSCLC.
